ChEMBL document CHEMBL1151888, “Synthesis, initial SAR and biological evaluation of 1,6-dihydroimidazo[4,5-d]pyrrolo[2,3-b]pyridin-4-amine derived inhibitors of IkappaB kinase” (Bioorg Med Chem Lett, 2009)
Values after ≈ are worked out from the molar mass of the structure shown. Active and inactive are the calls of the source. The calls are words filed in the database; no cut-off is given here.

Tests used:
[1] = test system: PBMC; test: Antiinflammatory activity in human PBMC assessed as inhibition of LPS-induced TNFalpha production treated 30 mins before LPS challenge measured after 6 hrs of LPS induction by ELISA; format: functional, cell-based
[2] = Solubility of the compound; format: physicochemical
[3] = Inhibition of IKK1-catalyzed phosphorylation of GST-tagged IkappaBalpha fusion protein by fluorescence polarization assay
[4] = Mean residence time in rat at 10 mg/kg, po; format: ADME, organism-based; set-up: dose 10 mg/kg, route oral; conditions: in vivo
[5] = Volume of distribution at steady state in rat at 2 mg/kg, iv; format: ADME, organism-based; set-up: dose 2 mg/kg, route intravenous; conditions: in vivo, read-out: Vdss
[6] = Clearance in rat at 2 mg/kg, iv; format: ADME, organism-based; set-up: dose 2 mg/kg, route intravenous; conditions: in vivo
[7] = test system: Serum; test: Drug level in Lewis rat serum at 10 mg/kg, po; format: ADME, organism-based; set-up: dose 10 mg/kg, route oral; conditions: in vivo, read-out: Drug uptake
[8] = test system: Blood; test: Antiinflammatory activity in Lewis rat whole blood assessed as inhibition of LPS-induced TNFalpha production treated 45 mins before LPS challenge measured after 4 hrs by ELISA; format: functional, tissue-based
[9] = Total AUC in rat at 2 mg/kg, iv; format: ADME, organism-based; set-up: time AUCmax, dose 2 mg/kg, route intravenous; conditions: in vivo
[10] = target: Inhibitor of nuclear factor kappa-B kinase subunit alpha (Homo sapiens) (UniProt O15111); test: Inhibition of IKK2-catalyzed phosphorylation of GST-tagged IkappaBalpha fusion protein by fluorescence polarization assay
[11] = Half life in rat at 2 mg/kg, iv; format: ADME, organism-based; set-up: dose 2 mg/kg, route intravenous; conditions: in vivo
[12] = Aqueous solubility at pH 1.0; format: physicochemical; conditions: aqueous solution
[13] = test system: Serum; test: Drug level in Lewis rat serum at 30 mg/kg, po; format: ADME, organism-based; set-up: dose 30 mg/kg, route oral; conditions: in vivo, read-out: Drug uptake
[14] = Oral bioavailability in rat at 10 mg/kg; format: ADME, organism-based; conditions: in vivo
[15] = test system: Serum; test: Drug level in Lewis rat serum at 3 mg/kg, po; format: ADME, organism-based; set-up: dose 3 mg/kg, route oral; conditions: in vivo, read-out: Drug uptake
[16] = test system: Blood; test: Antiinflammatory activity in Lewis rat whole blood assessed as inhibition of LPS-induced TNFalpha production at 17 uM treated 45 mins before LPS challenge measured after 4 hrs by ELISA; format: functional, tissue-based
[17] = test system: Rattus norvegicus; test: Antiinflammatory activity in Lewis rat assessed as inhibition of LPS-induced TNFalpha production at 30 mg/kg, po administered 4 hrs before LPS challenge measured after 90 mins by ELISA; format: functional; set-up: scale not given: the % may be the effect or the level left
[18] = test system: Rattus norvegicus; test: Antiinflammatory activity in po dosed Lewis rat assessed as inhibition of LPS-induced TNFalpha production administered 4 hrs before LPS challenge measured after 90 mins by ELISA; format: functional, organism-based
[19] = Mean residence time in rat at 2 mg/kg, iv; format: ADME, organism-based; set-up: dose 2 mg/kg, route intravenous; conditions: in vivo
[20] = Total AUC in rat at 10 mg/kg, po; format: ADME, organism-based; set-up: time AUCmax, dose 10 mg/kg, route oral; conditions: in vivo
[21] = Half life in rat at 10 mg/kg, po; format: ADME, organism-based; set-up: dose 10 mg/kg, route oral; conditions: in vivo

Inhibitor of nuclear factor kappa-B kinase subunit alpha (Homo sapiens), sequence (O15111 whole entry, looked up, the tested form may be a part): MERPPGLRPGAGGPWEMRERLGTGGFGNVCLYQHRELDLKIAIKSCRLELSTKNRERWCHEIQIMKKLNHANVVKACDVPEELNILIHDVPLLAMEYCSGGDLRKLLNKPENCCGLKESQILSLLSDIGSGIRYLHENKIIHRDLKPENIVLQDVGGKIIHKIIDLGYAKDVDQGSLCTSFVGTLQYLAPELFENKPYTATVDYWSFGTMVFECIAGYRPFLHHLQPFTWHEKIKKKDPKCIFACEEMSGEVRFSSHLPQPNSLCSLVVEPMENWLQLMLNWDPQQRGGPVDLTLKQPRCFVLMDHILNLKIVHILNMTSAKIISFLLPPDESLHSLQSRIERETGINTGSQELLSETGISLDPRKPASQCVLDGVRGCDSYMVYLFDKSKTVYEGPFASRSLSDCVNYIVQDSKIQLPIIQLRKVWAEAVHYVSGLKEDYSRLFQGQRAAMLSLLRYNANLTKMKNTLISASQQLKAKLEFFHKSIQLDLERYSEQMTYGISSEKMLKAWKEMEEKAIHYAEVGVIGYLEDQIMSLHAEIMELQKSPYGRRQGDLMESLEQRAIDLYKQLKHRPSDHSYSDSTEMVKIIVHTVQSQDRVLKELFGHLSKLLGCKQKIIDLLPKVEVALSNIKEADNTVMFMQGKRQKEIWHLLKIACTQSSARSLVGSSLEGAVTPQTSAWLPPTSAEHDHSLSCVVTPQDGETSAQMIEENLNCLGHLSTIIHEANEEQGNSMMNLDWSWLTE

SMILES | IC50 [1] | IC50 [3] | further results
CNc1nc2[nH]c(-c3cccc(F)c3)cc2c2c1ncn2C | 153 nM |  | 
CNc1nc2[nH]c(-c3cccc(C#N)c3)cc2c2c1ncn2C | 86 nM | 7 nM | solubility [2]: < 5 µg/mL
CNc1nc2[nH]c(-c3cccc(CNC(=O)CN(C)C)c3)cc2c2c1ncn2C | 2000 nM | 79 nM | 
CNc1nc2c(nc(-c3ccccc3)n2C)c2c1ncn2C | 446 nM |  | 
CNc1nc2[nH]c(-c3ccccc3)cc2c2c1ncn2C | 800 nM |  | 
CNc1nc2[nH]c(-c3cccc(CN)c3)cc2c2c1ncn2C | 340 nM |  | 
CNc1nc2[nH]c(-c3cccc(CNC(=O)CCC(N)=O)c3)cc2c2c1ncn2C | 1000 nM | 22 nM | 
CNc1nc2[nH]c(-c3cccc(CNC(=O)CCOC)c3)cc2c2c1ncn2C | 370 nM | 12 nM | MRT [4]: 14.7 h; Vd [5]: 0.2 L/kg; clearance [6]: 1.8 mL/min/kg; concentration [7]: 3000 nM; IC50 [8]: 8 µM; AUC [9]: 46.9 µM·h; IC50 [10]: 2620 nM; half-life [11]: 288 min; solubility [12]: 1820 µg/mL (≈ 4.65 mM); concentration [13]: 17 µM; bioavailability [14]: 31%; concentration [15]: 900 nM; Activity [16]: Active; Activity [17]: 85%; Activity [18]: Dose-dependent effect; MRT [19]: 2.1 h; AUC [20]: 71.7 µM·h; half-life [21]: 660 min
CNc1nc2sc(-c3ccccc3)nc2c2c1ncn2C | 310 nM |  | 
CNc1nc2[nH]c(-c3cccc(CNC(C)=O)c3)cc2c2c1ncn2C | 372 nM | 14 nM | IC50 [10]: 633 nM
CNc1nc2oc(-c3ccccc3)nc2c2c1ncn2C | 390 nM |  | 
CNc1nc2[nH]c(-c3ccc(F)cc3)cc2c2c1ncn2C | 538 nM | 43 nM | IC50 [10]: 1730 nM
CNc1nc2[nH]c(-c3cccc(CNC(=O)CO)c3)cc2c2c1ncn2C | 478 nM |  | 
CNc1nc2[nH]c(-c3ccccc3F)cc2c2c1ncn2C | 931 nM |  | 
CNc1nc2[nH]c(-c3cccc(OC)c3)cc2c2c1ncn2C | 320 nM | 8 nM | 
